For eight molecules, IC50, Kd and inhibition results are on record in ChEMBL document CHEMBL1153759, “Surface plasmon resonance-based detection of ladder-shaped polyethers by inhibition detection method” (Bioorg Med Chem Lett, 2009).

The source made the active and inactive calls. The calls are words filed in the database; no cut-off is given here.

Assay [1] is described as follows: (§1) Inhibition of bovine spleen PDE2 by surface plasmon resonance assay. Also noted: species or system Bos taurus.
Assay [2] deals with 3',5'-cyclic-AMP phosphodiesterase 4D (Homo sapiens, UniProt Q08499). The assay can be described thus: Binding affinity to recombinant PDE4D by surface plasmon resonance assay. (In SPR one partner is held on a chip, and binding of the other changes the refractive index at the surface.)
Assay [3] is filed under the species Bos taurus. Nature of the assay: Inhibition of bovine spleen PDE2 up to 100 uM after 20 to 40 seconds by surface plasmon resonance assay.
Assay [4] is described as follows: Binding affinity to bovine spleen PDE2 by surface plasmon resonance assay. Also noted: species or system Bos taurus.
The species named for assay [5] is Bos taurus. The assay is described as §1.

3',5'-cyclic-AMP phosphodiesterase 4D, sequence (Q08499 whole entry): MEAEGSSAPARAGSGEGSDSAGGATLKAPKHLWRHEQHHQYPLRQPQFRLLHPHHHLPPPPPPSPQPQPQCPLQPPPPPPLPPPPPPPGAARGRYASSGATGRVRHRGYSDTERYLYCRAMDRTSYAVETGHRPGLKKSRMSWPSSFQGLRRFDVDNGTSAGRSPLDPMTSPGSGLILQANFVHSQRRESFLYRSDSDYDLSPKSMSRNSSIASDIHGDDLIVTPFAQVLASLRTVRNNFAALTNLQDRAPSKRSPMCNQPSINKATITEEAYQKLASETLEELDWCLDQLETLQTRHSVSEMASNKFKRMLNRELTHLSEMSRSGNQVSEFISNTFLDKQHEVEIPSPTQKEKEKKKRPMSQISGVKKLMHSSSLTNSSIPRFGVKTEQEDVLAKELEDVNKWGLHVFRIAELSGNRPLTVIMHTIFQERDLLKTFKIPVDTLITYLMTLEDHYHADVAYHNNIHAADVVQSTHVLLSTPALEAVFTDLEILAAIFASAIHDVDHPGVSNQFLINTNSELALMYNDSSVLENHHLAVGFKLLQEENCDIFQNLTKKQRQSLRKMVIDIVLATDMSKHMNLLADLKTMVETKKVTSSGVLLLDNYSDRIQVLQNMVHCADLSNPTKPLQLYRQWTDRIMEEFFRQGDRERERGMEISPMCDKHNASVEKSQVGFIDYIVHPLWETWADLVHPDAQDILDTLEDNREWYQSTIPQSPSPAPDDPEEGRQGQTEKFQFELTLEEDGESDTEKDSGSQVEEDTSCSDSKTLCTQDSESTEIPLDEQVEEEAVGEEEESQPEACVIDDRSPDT

One may read the IC50 as the concentration needed to halve the response being measured. The low end stands for greater potency, the high end for weaker potency. For orientation: Kd means a measure of binding affinity in units of concentration. `C[C@@]12CC[C@@H]3O[C@H](CO)[C@@H](O)C[C@H]3O[C@H]1C[C@H]1O[C@@H](CCO)[C@H](O)C[C@@H]1O2` showed an IC50 in assay [1] above 100 µM. Besides, in assay [2], the Kd came to 29 µM.
`C[C@@]12CC[C@@H]3O[C@@H]4C[C@@H]5O[C@@H]6C[C@H](O)[C@@H](CO)O[C@H]6CC[C@@]5(C)O[C@H]4C[C@H]3O[C@H]1C[C@H]1O[C@@H](CCOCc3ccccc3)[C@H](OCc3ccccc3)C[C@@H]1O2` registered an IC50 in assay [1] of 9.2 µM. Moreover, the dissociation constant Kd in assay [2] stood at 4.8 µM.
Take `C=C(C=O)C[C@@H]1C[C@H](O)[C@]2(C)O[C@@H]3C[C@@H]4O[C@@H]5C[C@]6(C)O[C@]7(C)CC[C@@H]8O[C@@H]9C[C@]%10(C)O[C@@H]%11C(C)=CC(=O)O[C@H]%11C[C@H]%10O[C@H]9C[C@@H](C)[C@H]8O[C@H]7C[C@H]6O[C@H]5C/C=C\[C@H]4O[C@H]3C[C@H]2O1` [BREVETOXIN]: in assay [1], the IC50 came to 1.8 µM. Also, the inhibition entry in the assay listed under Bos taurus [3] was “Active”. Besides, the Kd in assay [2] stood at 3.8 µM.
`OC[C@H]1O[C@@H](CCOCc2ccccc2)[C@H](OCc2ccccc2)C[C@@H]1O`: the concentration for half-maximal inhibition (IC50) in assay [1] is above 100 µM. Further, the Kd in assay [2] was determined as 80 µM.
`C=CCC(=C)/C=C/[C@@](C)(O)[C@H]1O[C@@H]2C[C@@H]3O[C@@H]4C[C@@H]5O[C@@H]6C[C@@H]7O[C@@H]8C[C@@H]9O[C@@H]%10C[C@@H]%11O[C@](C)(CCOS(=O)(=O)O)[C@@H](OS(=O)(=O)O)C[C@H]%11O[C@H]%10C[C@H]9O[C@H]8CC[C@@]7(C)O[C@@]6(C)CC[C@H](C)[C@H]5O[C@H]4C[C@@]3(C)O[C@H]2CC1=C` [YESSOTOXIN]: in assay [1], the IC50 worked out at 3 µM. Further, in the assay filed under Bos taurus [3], the inhibition result is “Active”. The Kd in assay [2] stood at 1 µM; in assay [4] it was 2.2 µM.
On to `C[C@@]12CC[C@@H]3O[C@H](CO)[C@@H](O)C[C@H]3O[C@H]1C[C@H]1O[C@@H](CCOCc3ccccc3)[C@H](OCc3ccccc3)C[C@@H]1O2`, for which, in assay [1], it took 13 µM to reach half-maximal inhibition (IC50). The dissociation constant Kd in assay [2] was found to be 11 µM.
The molecule `C=CCC(=C)/C=C/[C@@](C)(O)[C@H]1O[C@@H]2C[C@@H]3O[C@@H]4C[C@@H]5O[C@@H]6C[C@@H]7O[C@@H]8C[C@@H]9O[C@@H]%10C[C@@H]%11O[C@](C)(CCO)[C@@H](O)C[C@H]%11O[C@H]%10C[C@H]9O[C@H]8CC[C@@]7(C)O[C@@]6(C)CC[C@H](C)[C@H]5O[C@H]4C[C@@]3(C)O[C@H]2CC1=C` [DESULFATED YESSOTOXIN] showed a 50% inhibitory concentration (IC50) in assay [1] of 1.7 µM. In the assay filed under Bos taurus [5], the inhibition entry is “Dose-dependent effect”. Besides, the inhibition result in the assay listed under Bos taurus [3] was “Active”. The dissociation constant (Kd) in assay [2] came out at 2 µM.
In assay [1], `CC[C@@H](C(=O)[C@@H](C)[C@@H](O)[C@H](C)[C@@H]1O[C@@H]([C@@H](CC)C(=O)O)CC[C@@H]1C)[C@H]1O[C@]2(C=C[C@@H](O)[C@]3(CC[C@@](C)([C@H]4CC[C@](O)(CC)[C@H](C)O4)O3)O2)[C@H](C)C[C@@H]1C` [SALINOMYCIN SODIUM] yielded an IC50 above 100 µM.
